Test results as given in article PMC7465040, “Cytotoxic and Anti-Plasmodial Activities of Stephania dielsiana Y.C. Wu Extracts and the Isolated Compounds” (Molecules, 2020).
Read-outs that look alike come from different tables or passages of the source.

What was measured:
[1] = tested on: chloroquine-resistant W2 P. falciparum strain; assay: In vitro anti-plasmodial assay (HRP2 ELISA), W2; assay type: cell-based, Plasmodium falciparum; details: for IC50: Plasmodium falciparum, W2, 72 h, 72 h, HRP2 ELISA, mean of five experiments, read-out: IC50 (μM ± SD) W2
Description: (§1) Parasites were grown in A-positive human blood (Etablissement Français du Sang, Marseille, France) under controlled atmospheric conditions that consisted of 10% O2, 5% CO2, and 85% N2 at 37 °C with a humidity of 95%.
(§2) In vitro anti-plasmodial assay: The two P. falciparum strains 3D7 and W2 were synchronized twice with sorbitol before use. The clonality of these strains was verified both in our laboratory and in an independent laboratory from the Worldwide Anti-malarial Resistance Network (WWARN) by PCR genotyping of the polymorphic genetic markers msp1 and msp2 and microsatellite loci. The compounds were re-suspended in methanol or DMSO 5% (v/v) and then diluted in methanol to obtain final concentrations ranging from 0.008 to 500 μg/mL (final concentration of 0.5% of methanol or DMSO). […] The plates were incubated for 72 h at 37 °C in controlled atmospheric conditions 5% CO2, 10% O2, and […]. After thawing the plates, haemolysed cultures were homogenized by vortexing the plates. Both the success of the drug susceptibility assay and the appropriate volume of haemolysed culture to use for each assay were determined for each clinical isolate during a preliminary HRP2 ELISA. Both the pre-test and subsequent ELISA assays were performed using a commercial kit (Malaria Ag Celisa, ref KM2159, Cellabs PTY LTD, Brookvale, Australia) according to the manufacturer’s recommendation. The optical density (OD) of each sample was measured with a spectrophotometer (Safire 2, Tecan, Lyon, France). […] The anti-plasmodial in vitro assay was performed five times for each product. The IC50 values represented the mean value calculated from five experiments. According to Hout, a selectivity index (SI) was based on the ratio between anti-parasitic and cytotoxic activities. In the case of our study, a SI was calculated between non-tumorigenic cell line 184B5 and parasites 3D7 or W2 and/or MCF10A and these two parasites.

184B5 = assay: SRB cell proliferation assay, 184B5 non-cancer cells; assay type: cell-based, human; details: Homo sapiens, 184B5
Description: (§3) In vitro anticancer study: The in vitro anti-proliferative tests were carried out as described previously, using aliquots of the cell lines used therein. Briefly, HeLa, MDA-MB-231 and MDA-MB-468, MCF7, and 184B5 and MCF 10A cell lines were purchased from ATCC. The identity of the cell lines presented in this study were verified by short tandem repeat profiling by Genetica DNA Laboratories (www.celllineauthentication.com) (April 8, 2015). MCF10A was grown in DMEM F12 medium supplemented with 0.02 μg/mL epidermal growth factor, 10% FBS, 10 μg/mL insulin and […] hydrocortisone. MDA-MB-468 were grown in DMEM supplemented with 10% FBS and antibiotics cocktail (100 μg/mL streptomycin, 100 units/mL penicillin and 250 ng/mL amphotericin B). SRB cell proliferation assays were carried out as previously described, with some minor modifications. The concentration range for all tested cell lines were from 100–0.39 μg/mL for extracts and 100–0.39 μM for pure compounds. […] All experiments were carried out at least twice.

[2] = tested on: chloroquine-susceptible 3D7 P. falciparum strain; assay: In vitro anti-plasmodial assay (HRP2 ELISA), 3D7; assay type: cell-based, Plasmodium falciparum; details: for IC50: Plasmodium falciparum, 3D7, 72 h, 72 h, HRP2 ELISA, mean of five experiments, read-out: IC50 (μM ± SD) 3D7
Description: as §1, §2

HeLa = assay: SRB cell proliferation assay, HeLa; assay type: cell-based, human
Description: as §3

MDA-MB-231 = assay: SRB cell proliferation assay, MDA-MB-231; assay type: cell-based, human
Description: as §3

MCF 10A = assay: SRB cell proliferation assay, MCF10A non-cancer cells; assay type: cell-based; details: Homo sapiens, Table 2A, paclitaxel in nM (footnote a), read-out: IC50 MCF 10A
Description: as §3

MDA-MB-468 = assay: SRB cell proliferation assay, MDA-MB-468; assay type: cell-based, human
Description: as §3

MCF7 = assay: SRB cell proliferation assay, MCF7; assay type: cell-based, human
Description: as §3

| Compound | IC50 [1] | SI W2 184B5 ([1]; Table 3, selectivity index between 184B5 and parasites W2) | IC50 (184B5; Table 3, non-cancer cell line, read-out: IC50 (μM ± SD) 184B5) | IC50 [2] | SI 3D7 184B5 ([2]; Table 3, selectivity index between 184B5 and parasites 3D7) | IC50 (HeLa; Homo sapiens, HeLa, Table 2A, paclitaxel in nM (footnote a), read-out: IC50 HeLa) | Selectivity index (SI) 184B5 versus HeLa (HeLa; Table 2B, non-cancer 184B5 vs cancer HeLa) | Selectivity index (SI) MCF10A versus HeLa (HeLa; Table 2B, non-cancer MCF10A vs cancer HeLa) | IC50 (184B5; Table 2A, paclitaxel in nM (footnote a), read-out: IC50 184B5) | IC50 (MDA-MB-231; Homo sapiens, MDA-MB-231, Table 2A, paclitaxel in nM (footnote a), read-out: IC50 MDA-MB-231) | Selectivity index (SI) 184B5 versus MDA-MB-231 (MDA-MB-231; Table 2B, non-cancer 184B5 vs cancer MDA-MB-231) | Selectivity index (SI) MCF10A versus MDA-MB-231 (MDA-MB-231; Table 2B, non-cancer MCF10A vs cancer MDA-MB-231) | IC50 (MCF 10A) | IC50 (MDA-MB-468; Homo sapiens, MDA-MB-468, Table 2A, paclitaxel in nM (footnote a), read-out: IC50 MDA-MB-468) | Selectivity index (SI) 184B5 versus MDA-MB-468 (MDA-MB-468; Table 2B, non-cancer 184B5 vs cancer MDA-MB-468) | Selectivity index (SI) MCF10A versus MDA-MB-468 (MDA-MB-468; Table 2B, non-cancer MCF10A vs cancer MDA-MB-468) | IC50 (MCF7; Homo sapiens, MCF7, Table 2A, paclitaxel in nM (footnote a), read-out: IC50 MCF7) | Selectivity index (SI) 184B5 versus MCF7 (MCF7; Table 2B, non-cancer 184B5 vs cancer MCF7) | Selectivity index (SI) MCF10A versus MCF7 (MCF7; Table 2B, non-cancer MCF10A vs cancer MCF7) |
| --- | --- | --- | --- | --- | --- | --- | --- | --- | --- | --- | --- | --- | --- | --- | --- | --- | --- | --- | --- |
| OC(c1cc(C(F)(F)F)nc2c(C(F)(F)F)cccc12)C1CCCCN1 (stereo not drawn) [Mefloquine, reference compound] | 0.022 ± 0.006 µM | 490.9 | 10.8 ± 0.75 µM | 0.052 ± 0.009 µM | 207.6 |  |  |  |  |  |  |  |  |  |  |  |  |  |  |
| CC(=O)O[C@H]1C(=O)[C@@]2(C)[C@H]([C@H](OC(=O)c3ccccc3)[C@]3(O)C[C@H](OC(=O)[C@H](O)[C@@H](NC(=O)c4ccccc4)c4ccccc4)C(C)=C1C3(C)C)[C@]1(OC(C)=O)CO[C@@H]1C[C@@H]2O [Paclitaxel, reference compound] |  |  |  |  |  | 3.81 ± 0.42 nM | 0.7 | 0.44 | 0.00265 ± 0.00191 µM | 1.58 ± 0.75 nM | 1.67 | 1.10 | 1.67 ± 0.21 nM | 3.96 ± 0.32 nM | 0.67 | 0.42 | 2.71 ± 1.11 nM | 0.98 | 0.62 |
| C[C@H]1[C@@H](O)O[C@@H]2O[C@@]3(C)CC[C@H]4[C@H](C)CC[C@@H]1[C@@]24OO3 [Dihydroartemisinin, reference compound] | 0.002 ± 0.001 µM |  |  | 0.002 ± 0.001 µM |  |  |  |  |  |  |  |  |  |  |  |  |  |  |  |
